From patent US20210246128A1, “BICYCLE TOPOISOMERASE I INHIBITING COMPOUNDS, PROCESS FOR PREPARATION AND USE THEREOF” (Council of Scientific & Industrial Research, priority 2018, published 2021)
Read-outs that look alike come from different tables or passages of the source.

Experiments:
Plasma stability assay = type: in vitro ADME; conditions: pH 7.4, 37° C., 1 μM
[1] = target: T1, human TopI-DNA cleavage complexes (TopIcc) (Homo sapiens, UniProt P11387); assay: Plasmid DNA cleavage assay; type: biochemical; conditions: compared with CPT, FIG. 3 and 4
T1 sequence (P11387 1-765): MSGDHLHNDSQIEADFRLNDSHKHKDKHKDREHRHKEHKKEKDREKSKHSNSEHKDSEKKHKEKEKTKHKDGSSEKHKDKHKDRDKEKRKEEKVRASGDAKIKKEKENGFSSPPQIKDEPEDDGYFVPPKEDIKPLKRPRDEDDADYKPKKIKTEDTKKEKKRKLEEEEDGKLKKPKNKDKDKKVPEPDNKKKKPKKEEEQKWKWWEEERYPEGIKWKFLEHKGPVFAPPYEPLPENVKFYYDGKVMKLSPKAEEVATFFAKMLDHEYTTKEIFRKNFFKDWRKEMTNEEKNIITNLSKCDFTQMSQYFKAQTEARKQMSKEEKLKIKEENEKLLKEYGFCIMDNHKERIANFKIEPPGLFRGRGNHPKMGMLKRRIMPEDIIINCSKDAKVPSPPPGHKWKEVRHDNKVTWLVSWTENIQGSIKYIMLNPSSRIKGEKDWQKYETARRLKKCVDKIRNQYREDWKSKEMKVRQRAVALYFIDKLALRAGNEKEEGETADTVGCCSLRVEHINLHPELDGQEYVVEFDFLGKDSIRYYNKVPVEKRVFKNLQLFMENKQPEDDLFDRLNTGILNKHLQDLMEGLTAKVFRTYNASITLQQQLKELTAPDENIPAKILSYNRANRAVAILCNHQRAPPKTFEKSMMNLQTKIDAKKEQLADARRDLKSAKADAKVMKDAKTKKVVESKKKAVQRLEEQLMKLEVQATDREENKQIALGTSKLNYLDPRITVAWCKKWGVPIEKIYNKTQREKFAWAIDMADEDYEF
Description: Cleavage reaction and electrophoresis in agarose gel were performed as described in B. Kundu, J. Med. Chem. 2019, 62, 3428-3446. Lane 1 comprises 50 fmol of pBluescript (SK^+) supercoiled DNA. Lanes 2-9 are same as lane 1 but incubated with equal amounts (100 fmol) of HTopI at the indicated concentration of CPT or compound 24 or only DMSO.
The mechanism of TopI inhibition with compound 24 in the plasmid DNA cleavage assays was investigated.

[2] = target: T2, recombinant human TopI (HTopI) (Homo sapiens, UniProt P11387); assay: Gel based plasmid DNA relaxation assay with recombinant TopI (in vitro); type: biochemical; conditions: recombinant human TopI, plasmid DNA relaxation
T2 sequence (P11387 1-765): T1 sequence (P11387 1-765)
Description: Human ToPI Inhibition in Plasmid DNA Relaxation Assays with Recombinant TopI (In Vitro) or MCF7 Cell Lysates (Ex Vivo)
Relaxation of supercoiled pBSSK(^+) DNA with recombinant human TopI (HTopI) at a molar ratio of 3:1 at 37° C. for 30 minutes was performed

[3] = Lipophilicity assay (octanol/buffer Log D); conditions: n-octanol/sodium phosphate buffer, pH 7.4
Description: 1.56 g NaH2PO4.2H2O was dissolved in 0.5 L water in a 1 L beaker. After adjusting pH to 7.4 using NaOH solution, the volume was made up to 1 L. Equal volumes of sodium phosphate buffer (10 mM, pH 7.4) and n-octanol were added to a separation funnel and mixed thoroughly by shaking and inverting the funnel several times. The two layers were allowed to separate for 2 days and then dispensed in two separate glass bottles. 10 mM stock solution was prepared in 100% DMSO and stored at 4° C. 500 μL of organic phase (1-octanol) was added to each well of a 2 mL deep well plate, followed by 500 μL of buffer and 15 μL of test substance was added. The plate was vortexed for 1 hr on a plate shaker at 1200 rpm. After incubation, the samples were allowed to equilibrate for 20 min and then centrifuged at 4000 rpm for 30 min for complete phase separation and analysed by LC-UV.
Log D=Log(area of octanol/area of buffer)
Mean, SD and % CV for each set of triplicates were calculated

[4] = Caco-2 permeability (21 day culture of Caco-2 cell monolayer); type: in vitro ADME; conditions: human; for recovery at 120 min, 10 μM: Caco-2, pH 7.4, Caco-2
How it was run: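 Caco-2 monolayers grown 21 days, used when TEER >230 ohm·cm2; compound at 10 μM final in HBSS pH 7.4 dosed apical or basal, receiver HBSS with 2% BSA, sampled at 120 min at 37° C. Bidirectional transport quantified by LC-MS/MS against single-point calibration.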

Mean % remaining at 2 hrs in human Plasma (Plasma stability assay): 84.18%
IC50 [2]: 21 nM
logD [3]: 3.51
efflux ratio at 120 min, 10 μM ([4]; Caco-2, pH 7.4): 4.54
recovery at 120 min, 10 μM ([4]; read-out: A to B % Recovery): 77.3%
recovery at 120 min, 10 μM ([4]; read-out: B to A % Recovery): 77.7%
Papp A→B at 120 min, 10 μM ([4]; pH 7.4, Caco-2, 10 μM, 120 min, read-out: Papp Apical to Basal): 6.47 ×10⁻⁶ cm/s
Papp B→A at 120 min, 10 μM ([4]; pH 7.4, Caco-2, 10 μM, 120 min, read-out: Papp Basal to Apical): 27.4 ×10⁻⁶ cm/s
SMILES: Nc1ccc(-c2ccc3ncc(-c4nnco4)c(NCCCn4ccnc4)c3c2)cn1 [Compound 24, N-(3-(1H-imidazol-1-yl)propyl)-6-(6-aminopyridin-3-yl)-3-(1,3,4-oxadiazol-2-yl)quinolin-4-amine]
stabilisation/trapping of TopI-DNA cleavage complexes (TopIcc) [1]: capable of stabilising TopIcc formation like CPT
